# Assay results from patent US6638953B2, “Indole derivatives as 5-HT receptor antagonist” (SmithKline Beecham p.l.c., priority 1995, dated 2003).
row,Structure (SMILES),melting point
1,"COc1cc2c(cc1C(F)(F)F)N(C(=O)Nc1ccc(Oc3cnccc3C)nc1)CC2 [Example 82, 5-Methoxy-6-trifluoromethyl-1-[6-(4-methylpyridin-3-yloxy)pyridin-3-ylcarbamoyl]indoline]",188 to 191 °C
2,COc1cc2c(cc1C(F)(F)F)N(C(=O)Nc1cccc(-c3cccnc3)c1)CC2 [Example 83],192 to 193 °C
3,COc1cc2c(cc1C(F)(F)F)N(C(=O)Nc1cccc(-c3cccnc3)c1OC)CC2 [Example 84],196 to 197 °C
4,COc1cc2c(cc1C(F)(F)F)N(C(=O)Nc1cccc(-c3cccnc3)c1Cl)CC2 [Example 85],214 to 216 °C
5,COc1cc2c(cc1C(F)(F)F)N(C(=O)Nc1cccc(-c3cnc4ccccc4c3)c1)CC2 [Example 86],240 °C (dec.)
6,COc1cc2c(cc1C(F)(F)F)N(C(=O)Nc1cncc(-c3ccc(F)cc3)c1)CC2 [Example 87],> 200 °C
7,COc1cc2c(cc1C(F)(F)F)N(C(=O)Nc1cncc(-c3cc(F)cc(F)c3)c1)CC2 [Example 88],226 to 229 °C
8,COc1cc2c(cc1C(F)(F)F)N(C(=O)Nc1cncc(-c3ccc(Cl)cc3)c1)CC2 [Example 89],198 to 199 °C
9,COc1cc2c(cc1C(F)(F)F)N(C(=O)Nc1cncc(-c3ccccc3C)c1)CC2 [Example 90],103 to 105 °C
10,COc1cc2c(cc1C(F)(F)F)N(C(=O)Nc1cncc(-c3ccccc3C=O)c1)CC2 [Example 91],114 to 116 °C
11,COc1cc2c(cc1C(F)(F)F)N(C(=O)Nc1cncc(-c3ccccc3CO)c1)CC2 [Example 92],190 to 192 °C
12,COc1cc2c(cc1C(F)(F)F)N(C(=O)Nc1cncc(-c3ccc(F)c(Cl)c3)c1)CC2 [Example 93],113 to 115 °C
13,COc1cc2c(cc1C(F)(F)F)N(C(=O)Nc1ccc(-c3ccccc3)nc1)CC2 [Example 94],204 to 207 °C
14,COc1cc2c(cc1C(F)(F)F)N(C(=O)Nc1ccc(-c3cccnc3)cn1)CC2 [Example 95],> 225 °C
15,COc1cc2c(cc1C(F)(F)F)N(C(=O)Nc1ccc(-n3cccn3)nc1)CC2 [Example 96],> 225 °C
16,COc1cc2c(cc1C(F)(F)F)N(C(=O)Nc1cccc(-c3ccc(N(C)C)cc3)c1)CC2 [Example 97],213 to 215 °C
17,COc1cc2c(cc1C(F)(F)F)N(C(=O)Nc1cccc(-c3ccc(CN(C)C)cc3)c1)CC2 [Example 98],209 to 211 °C
18,COc1cc2c(cc1C(F)(F)F)N(C(=O)Nc1cccc(-c3cccc(CN(C)C)c3)c1)CC2 [Example 99],185 to 187 °C
19,COc1cc2c(cc1C(F)(F)F)N(C(=O)Nc1cccc(-c3noc(CN(C)C)n3)c1)CC2 [Example 100],154 to 155 °C
20,COc1cc2c(cc1C(F)(F)F)N(C(=O)Nc1cccc(-c3ccc[nH]3)c1)CC2 [Example 102],> 240 °C
21,Cc1cc2c(cc1C(F)(F)F)N(C(=O)Nc1cccc(-c3cccnc3)c1)CC2 [Example 103],208 to 210 °C
22,C=Cc1cc(NC(=O)N2CCc3cc(OC)c(C(F)(F)F)cc32)cc(-c2cccnc2)c1 [Example 104],138 to 140 °C
23,COc1cc2c(cc1C(F)(F)F)N(C(=O)Nc1cc(-c3cccnc3)cc(C(F)(F)F)c1)CC2 [Example 105],220 to 222 °C
24,COc1cc2c(cc1C(F)(F)F)N(C(=O)Nc1cc(Cl)cc(-c3cccnc3)c1)CC2 [Example 106],183 to 185 °C
25,COc1cc2c(cc1C(F)(F)F)N(C(=O)Nc1cc(C(C)=O)cc(-c3cccnc3)c1)CC2 [Example 107],174 to 176 °C
26,COc1cc2c(cc1C(F)(F)F)N(C(=O)Nc1cc(-c3cccnc3)c(OC)c(C(F)(F)F)c1)CC2 [Example 108],180 to 181 °C
27,COc1cc2c(cc1C(F)(F)F)N(C(=O)Nc1ccc(C)c(-c3cnccc3C)c1)CC2 [Example 109],153 to 155 °C
